According to US9487489B2, “Halogen-substituted pyrazole derivatives as pest-control agents” (BAYER CROPSCIENCE AKTIENGESELLSCHAFT, priority 2013, dated 2016):

Experiments:
[1] = test system: L1 larvae of the Australian sheep blowfly (Lucilia cuprina); assay: Lucilia cuprina test (LUCICU); type: in vivo; details: application rate 100 ppm; after 2 days
Procedure, shortened: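 Percent mortality read at 2 days; 100% = all larvae killed, 0% = none. Test compound, predissolved in DMSO and water-diluted to the wanted level, was mixed into minced horsemeat holding roughly 20 first-instar larvae.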

[2] = test system: larvae of the mustard beetle (Phaedon cochleariae); assay: Phaedon cochleariae spray test (PHAECO); type: in vivo; details: Chinese cabbage leaf discs, after 7 days
Procedure, shortened: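 Kill of mustard beetle larvae is read as % mortality 7 days after spraying. Spray liquid: active compound in acetone plus dimethylformamide, brought up with water holding 1000 ppm alkylaryl polyglycol ether emulsifier and diluted further in emulsifier-water.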

[3] = test system: cattle ticks (Boophilus microplus) Parkhurst strain, SP-resistant; assay: Boophilus microplus dip test (BOOPMI Dip); type: in vivo; details: application rate 100 ppm, assessed after 7 days
Protocol: B. Boophilus microplus-dip Test (BOOPMI Dip)
Test animals: cattle ticks (Boophilus microplus) Parkhurst strain, SP-resistant
Solvent: dimethyl sulphoxide
10 mg of active compound are dissolved in 0.5 ml of dimethyl sulphoxide. For the purpose of preparing a suitable formulation, the active compound solution is diluted with water to the concentration desired in each case.
This active compound preparation is pipetted into tubes. 8-10 adult engorged female cattle ticks (Boophilus microplus) are transferred into a further tube with holes. The tube is immersed into the active compound formulation, and all ticks are completely wetted. After the liquid has run out, the ticks are transferred on filter discs into plastic dishes and stored in a climate-controlled room.
The activity is assessed after 7 days by laying of fertile eggs. Eggs whose fertility is not visible from the outside are stored in a climate-controlled cabinet until the larvae hatch after about 42 days. An efficacy of 100% means that none of the ticks has laid any fertile eggs; 0% means that all eggs are fertile.

[4] = logP determination by HPLC on a reversed-phase column (C18), EEC Directive 79/831 Annex V.A8; type: physicochemical; details: HPLC on reversed-phase column (C18), acetonitrile/water with formic acid, EEC Directive 79/831 Annex V.A8
Procedure, shortened: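 Per EEC 79/831 Annex V.A8, values derive from HPLC retention at 2.0 ml/min and 55° C on a 50*4.6 C18 column. The 10→95% acetonitrile gradient (0.1%/0.09% formic acid) lasted 4.25 min plus a 1.25 min hold; mass detection was by MSD.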

[5] = test system: adult cat fleas (Ctenocephalides felis); assay: Ctenocephalides felis oral test (CTECFE); type: in vivo; details: application rate 100 ppm in citrated cattle blood; after 2 days
Procedure, shortened: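 Mortality read at 2 days as percent of fleas killed. Compound predissolved in DMSO, diluted into citrated cattle blood and offered to roughly 20 unfed adult C. felis via parafilm membrane feeder.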

[6] = test system: caterpillars of the armyworm (Spodoptera frugiperda); assay: Spodoptera frugiperda spray test (SPODFR); type: in vivo; details: maize leaf discs, after 7 days
Procedure, shortened: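 Percent kill read at day 7 on caterpillar-infested maize leaf discs. Discs were first sprayed with aqueous emulsifier-containing (1000 ppm) preparations made from acetone/dimethylformamide solutions, and dried. Scale: 0% none dead, 100% all dead.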

[7] = test system: adult houseflies (Musca domestica); assay: Musca domestica test (MUSCDO); type: in vivo; details: application rate 100 ppm; after 2 days
Procedure, shortened: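 Groups of 10 adult Musca domestica exposed to a sugar-soaked sponge treated with the water-diluted DMSO preparation of compound at the chosen concentration. Percent kill read at day 2, where 0% means no flies killed and 100% all killed.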

[8] = test system: engorged adult female cattle ticks (Boophilus microplus); assay: Boophilus microplus injection test (BOOPMI Inj); type: in vivo; details: application rate 20 μg/animal; injection into abdomen; assessed after 7 days
Procedure, shortened: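 Efficacy is read at 7 days as fertile egg laying (100% = no fertile eggs laid; 0% = all eggs fertile), with eggs of unclear fertility stored until larvae hatch at about 42 days. Five engorged adult females per dose each receive an abdominal injection of 1 μl compound dissolved in DMSO.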

[9] = test system: adult cat fleas (Ctenocephalides felis); assay: Ctenocephalides felis in vitro contact test with adult cat fleas (T1); details: after 48 h
Procedure, shortened: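 Adult cat fleas (Ctenocephalides felis), 5-10 per tube, were exposed to the inner surface of 25 ml test tubes coated with compound in acetone. Tubes were incubated lying flat under ambient conditions. Efficacy was then read by standing tubes upright and knocking the fleas to the floor. Fleas that stayed motionless or moved uncoordinatedly counted as dead or moribund, where 100% means all fleas dead or moribund and 0% means none harmed.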

[10] = test system: green peach aphid (Myzus persicae); assay: Myzus persicae spray test (MYZUPE); type: in vivo; details: Chinese cabbage leaf discs, after 6 days
Protocol: G. Myzus persicae-spray Test (MYZUPE)
Solvents: 78 parts by weight of acetone
• 1.5 parts by weight of dimethylformamide Emulsifier: alkylaryl polyglycol ether
To produce a suitable preparation of active compound, 1 part by weight of active compound is dissolved using the stated parts by weight of solvent and made up with water comprising an emulsifier concentration of 1000 ppm until the desired concentration is reached. To produce further test concentrations, the preparation is diluted with emulsifier-containing water.
Discs of Chinese cabbage leaves (Brassica pekinensis) infested by all stages of the green peach aphid (Myzus persicae) are sprayed with an active compound preparation of the desired concentration.
After 6 days, the efficacy in % is determined 100% here means that all of the aphids have been killed; 0% means that no aphids have been killed.

[11] = test system: greenhouse red spider mite (Tetranychus urticae); assay: Tetranychus urticae spray test, OP-resistant (TETRUR); type: in vivo; details: bean leaf discs, after 6 days
Procedure, shortened: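 Percent kill, scored 6 days post-spray (0% = none dead, 100% = all dead), on Phaseolus vulgaris leaf discs infested with every life stage of the OP-resistant spider mite. Compound dissolved in acetone plus DMF, diluted to test concentration with emulsifier-containing water (1000 ppm).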

[12] = test system: adult dog ticks (Rhipicephalus sanguineus); assay: Rhipicephalus sanguineus in vitro contact test with adult brown dog ticks (T2); details: after 48 h
Procedure, shortened: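 Acetone solutions coated onto test tube walls and floor, giving 5 μg/cm^2 at 900 ppm. Five to ten adult ticks held per tube in the dark at room temperature for 48 h, then heated at 45-50° C for up to 5 min; efficacy is the percentage of dead or moribund ticks unable to climb away.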

| SMILES | efficacy (kill in %) [1] [%] | efficacy in % ([2]; application rate 100 g/ha) [%] | efficacy (laying of fertile eggs) [3] [%] | logP [4] | efficacy (kill in %) [5] [%] | efficacy in % ([6]; application rate 100 g/ha) [%] | efficacy (kill in %) [7] [%] | efficacy (laying of fertile eggs) [8] [%] | efficacy (dead or moribund fleas) ([9]; application rate 1 μg/cm^2) [%] | efficacy (dead or moribund fleas) ([9]; application rate 5 μg/cm^2) [%] | efficacy in % ([10]; application rate 100 g/ha) [%] | efficacy in % ([11]; application rate 100 g/ha) [%] | efficacy (dead or moribund ticks) ([12]; application rate 1 μg/cm^2) [%] | efficacy (dead or moribund ticks) ([12]; application rate 5 μg/cm^2) [%] | efficacy in % ([2]; application rate 500 g/ha) [%] | efficacy in % ([6]; application rate 500 g/ha) [%] | efficacy in % ([10]; application rate 500 g/ha) [%] | efficacy in % ([11]; application rate 500 g/ha) [%] |
| --- | --- | --- | --- | --- | --- | --- | --- | --- | --- | --- | --- | --- | --- | --- | --- | --- | --- | --- |
| Cn1nc(C(F)(F)C(F)(F)F)c(C(F)(F)F)c1-n1cc(-c2ccc(Cl)c(C(=O)NC3(C(N)=O)CC3)c2)cn1 [Ic-29] | 100 | 100 | 80 | 3.07 | 100 | 100 | 100 | 100 | 100 | 100 |  |  |  |  |  |  |  |  |
| Cn1nc(C(F)(F)C(F)(F)F)c(C(F)(F)F)c1-n1cc(-c2ccc([N+](=O)[O-])c(C(=O)NC3(C#N)CC3)c2)cn1 [Ic-65] | 100 | 100 | 100 | 3.48 | 100 | 83 | 100 | 100 | 100 | 100 | 90 | 100 |  |  |  |  |  |  |
| Cn1nc(C(F)(F)C(F)(F)F)c(C(F)(F)F)c1-n1cc(-c2ccc(Cl)c(C(=O)NCC(C)(F)F)c2)cn1 [Ic-80] | 100 | 100 | 80 | 4.05 | 100 | 100 | 100 | 100 |  |  | 90 | 100 |  |  |  |  |  |  |
| Cn1nc(C(F)(F)F)c(CF)c1-n1cc(-c2ccc(Cl)c(C(=O)NC3CC3)c2)cn1 [Ic-103] | 100 | 100 | 90 | 2.89 | 100 | 100 | 80 | 100 |  |  |  | 100 | 100 | 100 |  |  |  |  |
| C#CCNC(=O)c1cc(-c2cnn(-c3c(C(F)(F)F)c(C(F)(F)C(F)(F)F)nn3C)c2)ccc1Cl [Ic-109] |  | 100 | 100 | 3.69 |  | 100 |  |  | 100 | 100 | 100 | 100 | 100 | 100 |  |  |  |  |
| C=C=CCNC(=O)c1cc(-c2cnn(-c3c(C(F)(F)F)c(C(F)(F)C(F)(F)F)nn3C)c2)ccc1Cl [Ic-111] |  | 100 | 100 | 4.04 |  | 100 |  |  | 100 | 100 | 100 | 100 | 100 | 100 |  |  |  |  |
| Cn1nc(C(F)(F)C(F)(F)F)c(C(F)(F)F)c1-n1cc(-c2ccc(Cl)c(C(=O)NCC=CCl)c2)cn1 [Ic-112] |  |  | 100 | 4.13 |  | 100 |  |  | 100 | 100 | 100 | 100 | 100 | 100 |  |  |  |  |
| CC(C)NC(=O)c1cc(-c2cnn(-c3c(C(F)(F)F)c(C(F)(F)C(F)(F)F)nn3C)c2)ccc1Cl [Ic-113] |  | 100 | 100 | 4.01 |  | 100 |  |  | 100 | 100 | 90 | 100 | 80 | 100 |  |  |  |  |
| COCCNC(=O)c1cc(-c2cnn(-c3c(C(F)(F)F)c(C(F)(F)C(F)(F)F)nn3C)c2)ccc1Cl [Ic-139] |  |  | 100 |  | 100 |  |  | 100 | 100 | 100 |  |  |  |  | 100 | 100 | 100 | 100 |
| Cn1ccc(NC(=O)c2cc(-c3cnn(-c4c(C(F)(F)F)c(C(F)(F)C(F)(F)F)nn4C)c3)ccc2Cl)n1 [Ic-159] | 100 |  | 80 |  | 100 |  | 100 | 100 | 100 | 100 |  |  |  |  | 100 | 100 | 100 | 100 |
| Cc1coc(NC(=O)c2cc(-c3cnn(-c4c(C(F)(F)F)c(C(F)(F)C(F)(F)F)nn4C)c3)ccc2Cl)n1 [Ic-160] | 100 |  | 100 |  | 100 |  | 100 | 100 | 100 | 100 |  |  | 100 | 100 |  |  |  |  |
| Cn1nc(C(F)(F)C(F)(F)F)c(C(F)(F)F)c1-n1cc(-c2ccc(F)c(C(=O)NC3(C#N)CC3)c2F)cn1 [Ic-175] | 100 |  | 90 |  | 100 |  | 100 | 100 | 100 | 100 |  |  |  |  | 100 | 100 |  | 100 |
